Experimental findings from PubChem BioAssay (NCI) are described below.

Molecules are shown by their SMILES.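 The compound was tested at five concentrations on cells cultured in 96-well plates, with a 48-hour exposure period. GI50 marks 50% less growth. TGI: concentration producing complete growth inhibition.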

Experiment in all cases: NCI-60 cell line screen, 48 h
Assay [1] relates to UACC-62 melanoma.
Assay [2] concerns UO-31 renal.
Assay [3] relates to SK-MEL-28 melanoma.
The test system of assay [4] is HCT-116 colon.
Assay [5] relates to SF-539 CNS.
Assay [6] relates to HCT-15 colon.
In assay [7] the test system is HOP-92 NSCLC.
In assay [8] the test system is SK-MEL-2 melanoma.
The test system of assay [9] is A498 renal.
The test system of assay [10] is NCI-H226 lung.

Regarding `OCCOCn1nc(-c2ccccc2)nc1-c1cnccn1`, the TGI in assay [1], in assay [2], in assay [3], in [4], in assay [5] and in [6] was more than 100 µM in each case. The compound further returned a TGI in [7] of more than 100 µM.
`COC(=O)c1ccc2n[se]nc2c1`: the TGI in [1], in assay [2], in assay [3], in assay [4], in assay [5] and in assay [6] was more than 100 µM in each case. Besides, the TGI in [8] and in assay [9] was more than 100 µM in each case.
On to `COC(=O)C(=O)C(C(=O)C(=O)Nc1ccc(Cl)cc1Cl)c1nc2ccc(Cl)cc2[nH]c1=O` (stereo not given), for which the TGI in assay [1], in assay [2], in assay [3], in [4], in assay [5] and in assay [6] was more than 100 µM each time. Further, the TGI in assay [7], in [8] and in [10] was more than 100 µM each time.
Consider `O=C(N/C(=C\c1cc(Cl)ccc1Cl)c1nc2ccccc2[nH]1)c1ccccc1`, for which the TGI in assay [1] is more than 100 µM; in [2] it was 62.7 µM; in assay [3], more than 100 µM; in assay [5], more than 100 µM; in assay [6], 71.9 µM; in assay [7], 31.5 µM. In assay [8], the TGI is more than 100 µM.
In the case of `COc1cc(C=C2C(=O)OC(C)(C)OC2=O)cc(OC)c1OC`, the TGI in assay [1], in [2], in assay [3], in assay [4], in assay [5] and in assay [6] was more than 100 µM each time. In addition, the TGI in [7], in assay [8] and in assay [10] was more than 100 µM each time.
Turning to `COc1ccc(-n2cc(-c3ccc(Cl)cc3)[nH]c2=S)cc1Cl`, the GI50 in assay [1] was 83.5 µM; in assay [2], 19.1 µM; in [3] it was 36.5 µM; in assay [4], 47.2 µM; in assay [5], 19.9 µM; in assay [6], more than 100 µM. Also, the figures for the GI50 in assay [7], in assay [8] and in [10] were 17.2 µM, 82.1 µM and 23.7 µM, respectively. Further, the TGI in [1] is more than 100 µM; in assay [2], 47.8 µM; in assay [3], more than 100 µM; in assay [4] it was more than 100 µM; in assay [5], 44.3 µM; in assay [6] it was more than 100 µM. The TGI in [7] was 43.5 µM; in assay [8], more than 100 µM; in assay [10] it was 65.6 µM.
As for `Clc1cc(Cl)c2n[se]nc2c1`, the TGI in assay [1], in [2], in assay [3], in [4], in assay [5] and in assay [6] was more than 100 µM throughout. Moreover, the TGI in assay [8] and in assay [9] was more than 100 µM each time.
Regarding `COc1ncn(C2C=C(CO)C(O)C2O)c(=O)n1` (stereo not given), the TGI in [1], in assay [2], in assay [3], in assay [4], in assay [5] and in assay [6] was more than 100 µM each time. The TGI in [8], in assay [9] and in assay [10] was more than 100 µM in each case.
As for `Cc1cc(C)cc(NC(=O)CCC(=O)C2CCC/C2=N\NC(=O)C(=O)NN)c1` (stereo not given), the TGI in assay [1], in assay [2], in assay [3], in [4], in assay [5] and in [6] was more than 100 µM each time. Further, the TGI in assay [8], in assay [9] and in [10] was more than 100 µM each time.
With `COC(=O)CC[C@@H](NC(=O)C(C)NC(=O)COC1C(O)C(COC(=O)CCCCCCCCCCNC(=O)c2ccc([N+](=O)[O-])c3[nH]c4cc(Br)ccc4c(=O)c23)OC(OCc2ccccc2)C1NC(C)=O)C(N)=O` (stereo not given in full), the TGI in assay [1], in assay [2], in assay [3], in assay [4], in assay [5] and in assay [6] was more than 100 µM in each case. Moreover, the TGI in assay [7] was more than 100 µM; in assay [8] it was more than 100 µM; in assay [10], 98 µM.
`O=C1/C=C(/c2ccc(O)cc2)[C@H](O)Cc2ccc(OC3OC(CO)C(O)C(O)C3O)cc2O1` (stereo not given in full) (tested in a mixture with another compound): the TGI in [1], in assay [2], in assay [4], in assay [5], in assay [6] and in assay [8] was more than 100 µM in each case. Further, the TGI in [9] and in [10] was more than 100 µM throughout.
For the compound `O=c1c2ccccc2oc2nccnc12`, the TGI in assay [1], in assay [2], in assay [3], in [4], in [5] and in assay [6] was more than 100 µM throughout. Besides, the TGI in assay [8] and in assay [9] was more than 100 µM in each case.
Regarding `O=C(CC1Sc2ccccc2NC1=O)Nc1ccc([N+](=O)[O-])cc1[N+](=O)[O-]` (stereo not given), the TGI in assay [1] came to 28.8 µM; in [2], 25.1 µM; in assay [3] it was 31.8 µM; in assay [4] it was 29.8 µM; in assay [7], 31.3 µM; in assay [8] it was 46.5 µM. Moreover, in [10], the TGI came to 42.6 µM.
For `CC(=O)O/N=C1\C=Cc2c(no[n+]2[O-])C1=O`, the TGI in assay [1] stood at 30.2 µM; in [2], 28.3 µM; in [3] it was 36.9 µM; in [4], 27.6 µM; in assay [5] it was 31.3 µM; in [6], 36.4 µM. For the same compound, the TGI in [8] was 32.7 µM; in [9] it was 30.3 µM; in [10] it was more than 100 µM.
